Like-named read-outs stand apart in the source and are kept apart here.
Biological target: T1, human Cav3.2 channels (Homo sapiens, UniProt O95180)
T1 construct: expressed in transfected cells; host or cells: HEK293 cells (ATCC No. CRL-1573), plasmid pcDNA3.1(+)
Experiment: Intracellular calcium concentration measurement (Fluo-4 AM) in stable cells expressing human Cav3.2 channels, buffer A / buffer B
Type: cell-based
Source text: Construction of Stable Cells Expressing Human Cav3.2 Channels
(1) A sequence produced by incorporating HindIII site and kozak sequence (GCCACC) into the 5′-terminal side of human Cav3.2 channel ORF (Open Reading Frame) gene and incorporating Kpnl site into the 3′-terminal side was incorporated into pcDNA3.1(+) (Thermo-Fisher Scientific, Inc., #V790-20), and the plasmid was transfected into HEK293 cells (ATCC No. CRL-1573) according to the protocol of FuGENE (registered trademark) HD Transfection Reagent (PROMEGA #E2311).
(2) Method for Measuring Intracellular Calcium Concentration
In the present measurement system, buffer A and buffer B having different potassium ion concentrations were used in order to evaluate the state-dependent Cav3.2 inhibitory action of a test compound.
Stable cell line expressing human Cav3.2 channels, which had been produced in (1), was seeded in a 96-well plate using DMEM medium including 10% FBS, and the cells were cultured for 48 hours under the conditions of 37° C. and 5% CO2. Subsequently, the medium was removed, and various wells that had been washed with a base buffer were treated with 80 μL of a fluorescent dye solution containing a mixed liquid of 22 μg of calcium fluorescence indicator Fluo-4 AM (Dojindo Laboratories Co., Ltd., #F311), 20 μL of DMSO, […] of 10% Pluronic F-127 (Thermo-Fisher Scientific, Inc., #P6866), and 4 mL of a base buffer. The cells were left to stand for 45 minutes at room temperature in the dark, and then the cells were washed with buffer A or buffer B. Solutions having various test compound concentrations and respectively containing buffer A or buffer B were added to the respective wells, the respective solutions containing DMSO at the same final concentration as that of the test compound as negative control, or containing the test compound dissolved in 100% DMSO at a final concentration of 0.1%. The cells were left to stand for another 15 minutes at room temperature in the dark, and the cells were analyzed using the following method using a microplate reader, EnVision (PerkinElmer, Inc.). First, the background fluorescence for each well was measured, subsequently an ionophore was added to the well, and the fluorescence of the baseline was measured. Subsequently, buffer A or buffer B containing added KCl at a concentration of 83.8 mM or 91.8 mM was added to each well, and an increase in fluorescence caused by a calcium influx generated by that stimulus was measured for 10 seconds. The percentage inhibition was calculated from the maximum fluorescence increment from the baseline, and the logarithmic value of the test compound concentration and the inhibitory activity were plotted to calculate the IC50 value. The analysis was carried out by measuring the fluorescence at 510 nm emitted when the cells were irradiated with exciting light at 485 nm.
Base buffer: 140 mM NaCl, 5 mM KCl, 1 mM MgCl2, 0.5 mM CaCl2, 10 mM Glucose, and 10 mM HEPES, pH 7.3
Buffer A: Equilibrium potential of potassium: −92 mV

[1] = Tables 2 to 6, buffer A, equilibrium potential of potassium −92 mV, read-out: Inhibitory action of buffer A (inactivated state)
[2] = Table 1, buffer A, equilibrium potential of potassium −92 mV, read-out: Inhibitory action of buffer A (inactivated state)
[3] = Table 1, buffer B, equilibrium potential of potassium −110 mV, read-out: Inhibitory action of buffer B (resting state or closed state)

T1 sequence (O95180 whole entry): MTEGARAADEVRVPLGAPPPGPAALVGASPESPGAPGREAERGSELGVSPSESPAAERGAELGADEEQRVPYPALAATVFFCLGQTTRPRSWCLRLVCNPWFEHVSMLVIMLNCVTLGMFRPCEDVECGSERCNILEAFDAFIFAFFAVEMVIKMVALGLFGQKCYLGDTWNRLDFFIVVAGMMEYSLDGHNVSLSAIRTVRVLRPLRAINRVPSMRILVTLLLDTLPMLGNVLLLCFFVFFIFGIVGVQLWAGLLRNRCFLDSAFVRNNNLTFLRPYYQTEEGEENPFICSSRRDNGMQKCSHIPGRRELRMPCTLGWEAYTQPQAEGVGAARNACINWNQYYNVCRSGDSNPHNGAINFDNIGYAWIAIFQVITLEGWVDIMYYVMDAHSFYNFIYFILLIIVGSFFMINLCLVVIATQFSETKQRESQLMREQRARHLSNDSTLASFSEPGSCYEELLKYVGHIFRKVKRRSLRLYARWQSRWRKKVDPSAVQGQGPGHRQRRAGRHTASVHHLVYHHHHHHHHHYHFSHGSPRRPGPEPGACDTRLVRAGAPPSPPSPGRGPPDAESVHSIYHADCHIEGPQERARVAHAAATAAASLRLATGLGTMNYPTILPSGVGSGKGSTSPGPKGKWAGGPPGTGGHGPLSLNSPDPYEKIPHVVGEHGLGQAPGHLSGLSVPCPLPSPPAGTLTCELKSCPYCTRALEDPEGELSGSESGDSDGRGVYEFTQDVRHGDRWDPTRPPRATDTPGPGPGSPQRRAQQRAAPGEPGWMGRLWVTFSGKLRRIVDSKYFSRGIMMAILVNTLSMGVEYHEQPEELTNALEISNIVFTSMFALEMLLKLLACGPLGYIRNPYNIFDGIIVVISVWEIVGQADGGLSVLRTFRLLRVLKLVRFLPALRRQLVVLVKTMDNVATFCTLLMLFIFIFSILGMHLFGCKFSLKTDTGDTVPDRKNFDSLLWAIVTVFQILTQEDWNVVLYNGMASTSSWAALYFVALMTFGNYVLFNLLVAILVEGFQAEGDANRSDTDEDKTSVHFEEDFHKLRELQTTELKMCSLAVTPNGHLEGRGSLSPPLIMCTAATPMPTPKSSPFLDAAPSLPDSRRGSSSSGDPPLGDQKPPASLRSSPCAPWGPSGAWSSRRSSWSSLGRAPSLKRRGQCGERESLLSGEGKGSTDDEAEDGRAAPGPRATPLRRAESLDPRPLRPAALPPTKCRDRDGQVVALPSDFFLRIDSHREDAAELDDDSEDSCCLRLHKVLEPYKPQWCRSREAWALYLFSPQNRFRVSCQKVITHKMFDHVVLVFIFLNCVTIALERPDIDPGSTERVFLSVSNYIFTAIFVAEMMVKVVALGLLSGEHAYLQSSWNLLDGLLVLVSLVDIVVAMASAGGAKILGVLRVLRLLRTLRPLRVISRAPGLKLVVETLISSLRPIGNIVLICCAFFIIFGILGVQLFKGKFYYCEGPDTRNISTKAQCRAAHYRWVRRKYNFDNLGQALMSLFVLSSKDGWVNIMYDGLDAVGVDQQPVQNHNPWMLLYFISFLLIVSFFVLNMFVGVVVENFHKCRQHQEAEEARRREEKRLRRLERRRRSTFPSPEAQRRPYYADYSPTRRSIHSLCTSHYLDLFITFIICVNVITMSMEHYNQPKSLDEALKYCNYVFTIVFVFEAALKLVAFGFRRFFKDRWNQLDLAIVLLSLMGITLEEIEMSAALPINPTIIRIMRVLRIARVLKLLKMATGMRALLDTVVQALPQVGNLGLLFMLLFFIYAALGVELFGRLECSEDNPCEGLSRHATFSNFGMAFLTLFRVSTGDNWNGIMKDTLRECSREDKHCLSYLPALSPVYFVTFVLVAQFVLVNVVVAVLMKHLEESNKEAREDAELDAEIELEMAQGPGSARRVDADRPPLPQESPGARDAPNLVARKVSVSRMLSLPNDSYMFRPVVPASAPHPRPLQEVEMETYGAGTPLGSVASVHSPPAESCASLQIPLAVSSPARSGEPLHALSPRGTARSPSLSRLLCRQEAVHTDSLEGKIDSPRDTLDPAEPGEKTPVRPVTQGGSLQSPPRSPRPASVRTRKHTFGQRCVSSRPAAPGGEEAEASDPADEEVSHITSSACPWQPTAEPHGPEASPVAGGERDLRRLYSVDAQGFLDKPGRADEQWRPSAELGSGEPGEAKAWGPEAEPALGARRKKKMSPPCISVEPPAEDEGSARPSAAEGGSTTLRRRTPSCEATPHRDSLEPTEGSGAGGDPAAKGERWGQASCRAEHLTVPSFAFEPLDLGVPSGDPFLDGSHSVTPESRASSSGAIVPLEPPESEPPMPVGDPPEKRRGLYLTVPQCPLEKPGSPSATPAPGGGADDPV

SMILES	IC50 [1]	IC50 [2]	IC50 [3]
C[C@@H](NC(=O)C1CC1c1nc2ccccc2[nH]1)c1ccc(C(=O)N2CCNCC2)s1 (stereo in doubt) [Example 75, Trans-2-(1H-benzo[d]imidazol-2-yl)-N—((R)-1-(5-(piperazine-1-carbonyl)thiophen-2-yl)ethyl)cyclopropane-1-carboxamide]	1000 to 10000 nM	–	–
C[C@@H](NC(=O)[C@@H]1CCN(CC(=O)Nc2cnccn2)C1)c1ccc(OCC(F)(F)F)s1 [Example 37, (R)-1-(2-oxo-2-(pyrazin-2-ylamino)ethyl)-N—((R)-1-(5-(2,2,2-trifluoroethoxy)thiophen-2-yl)ethyl)pyrrolidine-3-carboxamide]	1000 to 10000 nM	–	–
CCn1c([C@H]2C[C@@H]2C(=O)N[C@H](C)c2cc3ccc(F)cc3o2)nc2ccccc21 [Example 110, (1S,2S)-2-(1-ethyl-1H-benzo[d]imidazol-2-yl)-N—((R)-1-(6-fluorobenzofuran-2-yl)ethyl)cyclopropane-1-carboxamide]	≤ 100 nM	–	–
O=C(NCc1cc2cc(F)ccc2o1)[C@H]1C[C@@H]1c1nc2ccccc2[nH]1 [Example 113, (1S,2S)-2-(1H-benzo[d]imidazol-2-yl)-N-((5-fluorobenzofuran-2-yl)methyl)cyclopropane-1-carboxamide]	≤ 100 nM	–	–
C[C@@H](NC(=O)[C@H]1C[C@@H]1c1nc2ccccc2[nH]1)c1cnc(-c2ccccc2)s1 [Example 89, (1S,2S)-2-(1H-benzo[d]imidazol-2-yl)-N—((R)-1-(2-phenylthiazol-5-yl)ethyl)cyclopropane-1-carboxamide]	100 to 1000 nM	–	–
C[C@@H](NC(=O)C1CC1c1nc2ccccc2[nH]1)c1ccc(C(=O)N2CCN(C)CC2)s1 (stereo in doubt) [Example 68, Trans-2-(1H-benzo[d]imidazol-2-yl)-N—((R)-1-(5-(4-methylpiperazine-1-carbonyl)thiophen-2-yl)ethyl)cyclopropane-1-carboxamide]	1000 to 10000 nM	–	–
C[C@@H](NC(=O)[C@H]1C[C@@H]1c1nc2ccccc2[nH]1)c1ccc(C(=O)N2CCC(F)(F)CC2)s1 [Example 94, (1S,2S)-2-(1H-benzo[d]imidazol-2-yl)-N—((R)-1-(5-(4,4-difluoropiperidine-1-carbonyl)thiophen-2-yl)ethyl)cyclopropane-1-carboxamide]	100 to 1000 nM	–	–
C[C@@H](NC(=O)[C@H]1C[C@@H]1c1nc2ccccc2[nH]1)c1nc(C2CC2)no1 [Example 72, (1S,2S)-2-(1H-benzo[d]imidazol-2-yl)-N—((R)-1-(3-cyclopropyl-1,2,4-oxadiazol-5-yl)ethyl)cyclopropane-1-carboxamide]	1000 to 10000 nM	–	–
C[C@@H](NC(=O)[C@H]1C[C@@H]1c1nc2ccccc2[nH]1)c1cc2c(F)cccc2o1 [Example 97, (1S,2S)-2-(1H-benzo[d]imidazol-2-yl)-N—((R)-1-(4-fluorobenzofuran-2-yl)ethyl)cyclopropane-1-carboxamide]	100 to 1000 nM	–	–
CC(C(=O)NC12CC3CC(CC(C3)C1)C2)N1CC[C@@H](C(=O)N[C@H](C)c2cnc(OCC(F)(F)F)s2)C1 (stereo partly drawn) [Example 47, (3R)-1-(1-((adamantan-1-yl)amino)-1-oxopropan-2-yl)-N—((R)-1-(2-(2,2,2-trifluoroethoxy)thiazol-5-yl)ethyl)pyrrolidine-3-carboxamide]	≤ 100 nM	–	–
C[C@@H](NC(=O)[C@@H]1CCN(c2ccc(C(F)(F)F)cn2)C1)c1cc2cc(F)ccc2o1 [Example 121, (R)—N—((R)-1-(5-fluorobenzofuran-2-yl)ethyl)-1-(5-(trifluoromethyl)pyridin-2-yl)pyrrolidine-3-carboxamide]	> 10000 nM	–	–
COc1ccc2oc([C@@H](C)NC(=O)[C@H]3C[C@@H]3c3nc4ccccc4[nH]3)cc2c1 [Example 79, (1S,2S)-2-(1H-benzo[d]imidazol-2-yl)-N—((R)-1-(5-methoxybenzofuran-2-yl)ethyl)cyclopropane-1-carboxamide]	100 to 1000 nM	–	–
C[C@@H](NC(=O)[C@H]1C[C@@H]1c1nc2ccccc2[nH]1)c1ccc(C(=O)N2CCCCCC2)s1 [Example 87, (1S,2S)—N—((R)-1-(5-(azepane-1-carbonyl)thiophen-2-yl)ethyl)-2-(1H-benzo[d]imidazol-2-yl)cyclopropane-1-carboxamide]	1000 to 10000 nM	–	–
C[C@@H](NC(=O)[C@H]1C[C@@H]1c1nc(-c2ccccn2)c[nH]1)c1ccc(OCC(F)(F)F)s1 [Example 46, (1S,2S)-2-(4-(pyridin-2-yl)-1H-imidazol-2-yl)-N—((R)-1-(5-(2,2,2-trifluoroethoxy)thiophen-2-yl)ethyl)cyclopropane-1-carboxamide]	100 to 1000 nM	–	–
C[C@@H](NC(=O)[C@H]1C[C@@H]1c1nc2ccccc2[nH]1)c1cc2cccc(F)c2o1 [Example 96, (1S,2S)-2-(1H-benzo[d]imidazol-2-yl)-N—((R)-1-(7-fluorobenzofuran-2-yl)ethyl)cyclopropane-1-carboxamide]	100 to 1000 nM	–	–
C[C@@H](NC(=O)C1CC1c1nc2ccccc2[nH]1)c1ccc(C(N)=O)s1 (single isomer, unassigned) [Example 30]	> 10000 nM	–	–
CC(NC(=O)[C@H]1C[C@@H]1c1nc2ccccc2[nH]1)c1cc2ncccc2o1 (stereo partly drawn) [Example 80, (1S,2S)-2-(1H-benzo[d]imidazol-2-yl)-N-(1-(furo[3,2-b]pyridin-2-yl)ethyl)cyclopropane-1-carboxamide]	1000 to 10000 nM	–	–
C[C@@H](NC(=O)[C@H]1C[C@@H]1c1nc2ccccc2[nH]1)c1ccc(C(=O)N2CC(F)(F)C2)s1 [Example 83, (1S,2S)-2-(1H-benzo[d]imidazol-2-yl)-N—((R)-1-(5-(3,3-difluoroazetidine-1-carbonyl)thiophen-2-yl)ethyl)cyclopropane-1-carboxamide]	100 to 1000 nM	–	–

Next, values leading:

IC50 [1]	IC50 [2]	IC50 [3]	SMILES
1000 to 10000 nM	–	–	C[C@@H](NC(=O)C1CC1c1nc2cc(Cl)ccc2[nH]1)c1nc(C2CC2)no1 (single isomer, unassigned) [Example 77B]
–	1000 to 10000 nM	> 10000 nM	C[C@@H](NC(=O)C1CC1c1nc2ccccc2n1C)c1ccc(OCC(F)(F)F)s1 (single isomer, unassigned) [Example 4B]
1000 to 10000 nM	–	–	CC(NC(=O)[C@H]1C[C@@H]1c1nc2ccccc2[nH]1)c1nc2ccc(F)cc2[nH]1 (single isomer, unassigned) [Example 127B]
≤ 100 nM	–	–	C[C@@H](NC(=O)C1CC1c1nc2c(Cl)cccc2[nH]1)c1ccc(OCC(F)(F)F)s1 (single isomer, unassigned) [Example 122A]
1000 to 10000 nM	–	–	C[C@@H](NC(=O)C1CC1c1ccccn1)c1ccc(OCC(F)(F)F)s1 (single isomer, unassigned) [Example 23A]
100 to 1000 nM	–	–	C[C@@H](NC(=O)C1CC1c1nc2cc(Cl)ccc2[nH]1)c1nc(C2CC2)no1 (single isomer, unassigned) [Example 77A]
100 to 1000 nM	–	–	COc1ccc2[nH]c(C3CC3C(=O)N[C@H](C)c3ccc(OCC(F)(F)F)s3)nc2c1 (single isomer, unassigned) [Example 71A]
100 to 1000 nM	–	–	CCn1c(C2CC2C(=O)N[C@H](C)c2cnc(OCC(F)(F)F)s2)nc2ccccc21 (single isomer, unassigned) [Example 57A]
–	> 10000 nM	–	C[C@@H](NC(=O)C1CC1c1nc2ccccc2[nH]1)c1ncc(Br)s1 (single isomer, unassigned) [Example 11B]
> 10000 nM	–	–	C[C@@H](NC(=O)C1CC1c1nc2ccccc2o1)c1ccc(OCC(F)(F)F)s1 (single isomer, unassigned) [Example 40B]
–	100 to 1000 nM	> 10000 nM	Cc1cc([C@@H](C)NC(=O)C2CC2c2nc3ccccc3[nH]2)sc1OCC(F)(F)F (single isomer, unassigned) [Example 1A]
1000 to 10000 nM	–	–	C[C@@H](NC(=O)C1CC1c1nc2cc(Cl)ccc2[nH]1)c1cnc(OCC(F)(F)F)s1 (single isomer, unassigned) [Example 64B]
> 10000 nM	–	–	C[C@@H](NC(=O)C1CC1c1nc2cc(Cl)cnc2[nH]1)c1ccc(OCC(F)(F)F)s1 (single isomer, unassigned) [Example 85B]
100 to 1000 nM	–	–	COc1ccc2[nH]c(C3CC3C(=O)N[C@H](C)c3ccc(OCC(F)(F)F)s3)nc2c1 (single isomer, unassigned) [Example 71B]
